Data on four compounds can be found in PMC6213047, “Design of Antibacterial Agents: Alkyl Dihydroxybenzoates against Xanthomonas citri subsp. citri” (International Journal of Molecular Sciences, 2018).

The subject of test [1] is X. citri subsp. citri strain 306 (IBSBF 1594). Nature of the test: MIC by Resazurin Microtiter Assay (REMA). As to conditions: REMA, NYG medium, 29 °C, 12 h. The format is cell-based, Xanthomonas citri subsp. citri. The method, then: The antibacterial potential of carboxylic acids and their esters were compared to copper oxychloride (a commercial active often used to combat citrus canker). Minimal inhibitory concentration (MIC) values were determined by REMA assay, which measures cellular respiratory activity.
The antibacterial activity of alkyl dihydroxybenzoates and the determination of minimum inhibition concentration (MIC) were performed by the fluorimetric method Resazurin Microtiter Assay (REMA) with some modifications. An overnight culture of X. citri subsp. citri strain 306 (IBSBF 1594) was grown in 20 mL in Nitrogen Yeast Glycerol (NYG) at 29 °C in constant agitation of 180–200 rpm. After 12 h, the Xcc inoculum was dispersed in NYG medium and distributed into a 96 well microtiter plate to a final volume of 100 μL per well (10^5 CFU per well). Stock solutions of tested compounds at 10 mg mL^−1 were prepared in dimethyl sulfoxide (DMSO) and dispersed in NYG medium to obtain 1% DMSO and the final compound concentration range of 0.78–100 μg mL^−1. The negative control was constituted of 100 μL culture medium. In addition, the copper oxychloride was tested as a comparison to alkyl dihydroxybenzoates and kanamycin (20 μg mL^−1), which was used as a control antibiotic. The plate was subsequently incubated at 29 °C for 12 h, and 15 μg mL^−1 freshly prepared resazurin solution in water was added to each well, and the plate was incubated for 2 h. The fluorescence was determined on a Synergy H1 (BioTek, Winooski, VT, USA) microplate reader using the excitation and emission filters at wavelengths of 530 and 590 nm respectively. After the REMA assay, the minimum bactericidal concentration (CBM) assay was performed using a 96-pin stainless steel plate replicator, accurately transferring the wells from the REMA plate to Petri dishes Petri dishes were incubated in oven B.O.D. at 29 °C for 24 to 48 h. The experiments were performed in triplicate.
A general note: The colour change of resazurin is a common sign of viable cells or microbes.

Test [2] deals with HaCaT (human keratinocyte cell line). The test can be described thus: Cytotoxicity MTT assay, HaCaT. The format is cell-based. As to conditions: MTT; for IC50: 24 h treatment, read-out: IC50 HaCaT. The protocol:
(§1) This test is based on the reduction of 3-(4,5-dimethyl-2-thiazolyl)-2,5-diphenyl-2-tetrazole bromide by viable cells, with formation of violet insoluble formazan crystals. Five cell lines were used in order to evaluate the cytotoxic effect of the compounds as a whole.
(§2) The cytotoxicity of compounds 4, 16, 28 and copper oxychloride was determined by MTT assay. The cell lines used were HaCaT (human keratinocyte cell line—CLS 300493), Huh-7.5 (human hepatoma cell line—ATCC® PTA-8561), MRC-5 (human lung fibroblast cell line—ATCC CCL-171), VERO (monkey kidney epithelial cell line—ATCC® CCL81) and ACHN (human renal adenocarcinoma cell line—ATCC® CRL1611). The cells were cultured in appropriate medium recommended by the American Type Culture Collection.
(§3) The assay was performed with the concentration of 10^4 cells for both cell lines, distributed in 96-well plates and incubated at 37 °C in a 5% CO2 controlled atmosphere oven for 24 h. After the incubation period, the cells were treated with the compounds with a range of 1.56–200 μmol L^−1 and incubated for 24 h. The supernatant was removed, then 100 μL of 3-(4,5-dimethyl-2-thiazolyl)-2,5-diphenyl-2H-tetrazolium (MTT) salt at 1 mg mL^−1 diluted in DMEM medium (Gibco Life Technologies, Gaithersburg, MD, USA) was added and incubated for 30 min. Subsequently, the MTT was removed, then 100 μL of DMSO under agitation for 5 min at 60 rpm was added. The plates were read at 570 nm in a FLUOstar Omega/BMG LABTECH plate reader, Offenburg, BW, DE. We carried out the experiments in triplicate and three independent events for statistical analysis (GraphPad Software, San Diego, CA, USA). The MTT assay is based on the tetrazolium salt (yellow-colored) reduction to formazan (purple-colored) by metabolically active cells.

The test system of test [3] is Huh-7.5 (human hepatoma cell line). Nature of the test: Cytotoxicity MTT assay, Huh-7.5. The note with it: MTT; for IC50: 24 h treatment, read-out: IC50 Huh-7,5. The format is cell-based. The method, then:
as §1, §2, §3

The subject of test [4] is MRC-5 (human lung fibroblast cell line). The test can be described thus: Cytotoxicity MTT assay, MRC-5. Format: cell-based. As to conditions: MTT; for IC50: 24 h treatment, read-out: IC50 MRC-5. The protocol:
as §1, §2, §3
Background: Tetrazolium assays rely on reduction of a dye to a coloured formazan, in cell work by metabolically active cells.

In test [5] the test system is VERO (monkey kidney epithelial cell line). Nature of the test: Cytotoxicity MTT assay, VERO. The format is cell-based. As to conditions: MTT; for IC50: 24 h treatment, read-out: IC50 VERO. The method, then: as §1, §2, §3
Test [6] has as its system ACHN (human renal adenocarcinoma cell line). The test can be described thus: Cytotoxicity MTT assay, ACHN. The note with it: MTT; for IC50: 24 h treatment, read-out: IC50 ACHN. Format: cell-based. The protocol:
as §1, §2, §3

Test [7] concerns Xanthomonas citri subsp. citri. Nature of the test: Growth curve of Xcc (OD 600 nm). The format is cell-based. As to conditions: MIC and ½ MIC, 72 h. The protocol: According to the growth curves of the positive control (PC) and vehicle control (DMSO), it was observed that Xcc reaches the maximum growth phase in a period of 15 h. […] The early growth inhibition (lag phase), which happens in the first hours of contact (period of the first cellular divisions) can be a dynamic process. […] This can be explained because the compounds have bacteriostatic action; that is, as the time passes, the cells become able to recover and restart doubling. Another important finding is that the lag phase consists in the cell adaptation to the new medium conditions and the bacterial population is smaller in relation to the exponential phase facilitates the action of the compounds in the first hours (Figure 1).
An isolated colony of Xanthomonas citri subsp. citri was inoculated in NYG medium for 12 h at 29 °C. After this, the optical density (OD 600 nm) was measured and adjusted to ~0.1. […] Optical density reading was measured on a Synergy H1-BioTek plate reader every 30 min for 72 h. The growth curves were plotted with GraphPad Prism software. At the same time, the degradation assay was performed, solubilizing the compounds in DMSO, which were later incorporated in NYG medium. Later, we scanned the compounds to measure the absorbance values from 210 to 700 nm, and the maximum lambda value of each compound was selected after scanning. After that, punctual readings were carried out every 30 min for 72 h.

Test [8] relates to X. citri subsp. citri strain 306 (IBSBF 1594). The note with it: anti-Xcc, previous study ref 25; cited from earlier work.
The test system of test [9] is Xcc cells membrane integrity. Nature of the test: Cellular membrane permeability of Xcc, Live/Dead BacLight kit. The format is cell-based, Xanthomonas citri subsp. citri. The note with it: compounds at ¼ MIC, 15 min; nisin as positive control. The protocol:
Membrane integrity was measured by using the commercial assay Live/Dead BacLight® bacterial viability kit (Invitrogen, Carlsbad, CA, USA). We observed cells with intact membrane in fluorescent blue (SYTO 9) and cells with disturbance or affected membrane integrity in red or pink (propidium iodide). The data analyses were plotted as the percentage of cells permeated by propidium iodide (Figure 2).
Phase contrast microscopy was used to observe changes in cell shape and signs of cell division alteration using an objective lens with a magnification of 100×. To evaluate the Xcc cells’ membrane integrity, the BacLight® kit was used. Mixtures of SYTO 9 dyes and propidium iodide (PI). SYTO 9 (blue) can stain nucleic acids in general—with intact or damaged membranes. On the other hand, PI (red) penetrates only the bacteria with damaged membranes, causing overlap in the fluorescence of SYTO 9. Therefore, using a mixture of the dyes, the bacteria with disturbed cell membranes are stained in fluorescent red and the intact cell membranes are stained in fluorescent blue. […] Cellular immobilization was performed on slides containing 1% agarose gel in 0.85% saline buffer. The slides were prepared with 1.0 mL of the agarose solution, which was dispersed in optical microscopy slides and on each slide another slide was placed so that the gel continued like a thin film and was of homogeneous height. The slides were dried at room temperature for approximately 20 min and opened at the time of use, when 10 μL of the cell suspension was deposited in the center and covered with the cover slip. The cells were visualized using the Olympus BX-61 optical microscope equipped with OrcaFlash 2.8 monochrome camera (Hamamatsu, Shizuoka, Japan). Cell Sensation software v11 (Olympus) was used to document and analyze the images.

[10] abbreviates: 24 h, unit as in text for copper oxychloride.

The MIC is the lowest concentration found to suppress growth. Usually IC50 stands for the point on the concentration scale where inhibition reaches its midpoint.

Values after ≈ are worked out from the molar mass of the structure shown. Like-named read-outs stand apart in the source and are kept apart here. Some results are limits rather than exact numbers.

For `NC[C@H]1O[C@H](O[C@H]2[C@H](O)[C@@H](O[C@H]3O[C@H](CO)[C@@H](O)[C@H](N)[C@H]3O)[C@H](N)C[C@@H]2N)[C@H](O)[C@@H](O)[C@@H]1O` [Kanamycin, kanamycin, reference compound], the minimal inhibitory concentration (MIC) in test [1] was 19.9 µg/mL; in [1] (read-out: MIC in μM) it was 40 µM. Moreover, the IC50 in test [2], in test [3], in test [4], in test [5] and in [6] was above 200 µM in each case.
Turning to `[Cl-].[Cu+2].[Cu+2].[OH-].[OH-].[OH-]` [copper oxychloride, reference compound], in [1], the minimum inhibitory concentration (MIC) was 43.1 µg/mL. Also, in test [2] (setting [10]), the “IC50 HaCaT” value is “above 200 μg mL^−1”. The IC50 in test [2], in test [3], in test [4], in test [5] and in [6] was above 200 µM in each case. In [3] (setting [10]), the “IC50 Huh-7.5” value is recorded as “above 200 μg mL^−1”. The “IC50 MRC-5” value in test [4] (setting [10]) is “above 200 μg mL^−1”. Moreover, the “IC50 VERO” value in test [5] (setting [10]) was “above 200 μg mL^−1”. In addition, the “IC50 ACHN” value in test [6] (setting [10]) is “above 200 μg mL^−1”. Also, in [7], the “effect on Xcc growth curve” value is “inactive”.
For the compound `CCCCCCCOC(=O)c1cc(O)c(O)c(O)c1` [heptyl gallate], the MIC in test [8] is 116 µM (≈ 31.1 µg/mL).
Regarding nisin [reference compound], the “percentage of cells permeated by propidium iodide” value in [9] is on record as 79.47%.
